# Reference: patent US9981909B2 (Janssen Pharmaceutica NV, priority 2008, dated 2018)
# Where two headings read alike, the source gives them in different places.
# Experiments:
# rat 5-HT7 receptor = rat 5-HT7 receptor (Rattus norvegicus (Rat), UniProt P32305); assay: r5-HT7 binding assay, competitive radioligand binding with [3H]5-CT
# Summary of the method: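 Whole r5-HT7-transfected HEK-293 cells first received test compound for 10 min. They were then exposed to 100 nM 5-CT for 20 min before lysis and competitive immunoassay of cAMP. Affinity came from displacement of [3H]5-CT on membranes of the same recombinant line, expressed as Ki.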
# h5HT2A [1] = target: T1, h5HT2A (Homo sapiens (Human), UniProt P28223); assay: h5HT2A binding
# T1 sequence (P28223 whole entry): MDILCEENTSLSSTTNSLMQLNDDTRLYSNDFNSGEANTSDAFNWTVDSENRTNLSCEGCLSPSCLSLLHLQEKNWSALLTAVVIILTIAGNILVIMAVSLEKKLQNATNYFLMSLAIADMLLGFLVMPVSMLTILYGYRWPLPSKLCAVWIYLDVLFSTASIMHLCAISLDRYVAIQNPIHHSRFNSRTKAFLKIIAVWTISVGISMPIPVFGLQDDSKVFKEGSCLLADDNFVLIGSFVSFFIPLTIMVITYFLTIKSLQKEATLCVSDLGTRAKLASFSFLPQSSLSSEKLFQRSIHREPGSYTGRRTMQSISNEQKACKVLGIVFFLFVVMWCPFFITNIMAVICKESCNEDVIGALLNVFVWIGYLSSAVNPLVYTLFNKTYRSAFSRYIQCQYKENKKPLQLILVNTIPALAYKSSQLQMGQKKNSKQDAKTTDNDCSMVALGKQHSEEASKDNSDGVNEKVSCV
# h5HT2B [2] = target: T2, h5HT2B (Homo sapiens (Human), UniProt P41595); assay: h5HT2B binding
# T2 sequence (P41595 whole entry): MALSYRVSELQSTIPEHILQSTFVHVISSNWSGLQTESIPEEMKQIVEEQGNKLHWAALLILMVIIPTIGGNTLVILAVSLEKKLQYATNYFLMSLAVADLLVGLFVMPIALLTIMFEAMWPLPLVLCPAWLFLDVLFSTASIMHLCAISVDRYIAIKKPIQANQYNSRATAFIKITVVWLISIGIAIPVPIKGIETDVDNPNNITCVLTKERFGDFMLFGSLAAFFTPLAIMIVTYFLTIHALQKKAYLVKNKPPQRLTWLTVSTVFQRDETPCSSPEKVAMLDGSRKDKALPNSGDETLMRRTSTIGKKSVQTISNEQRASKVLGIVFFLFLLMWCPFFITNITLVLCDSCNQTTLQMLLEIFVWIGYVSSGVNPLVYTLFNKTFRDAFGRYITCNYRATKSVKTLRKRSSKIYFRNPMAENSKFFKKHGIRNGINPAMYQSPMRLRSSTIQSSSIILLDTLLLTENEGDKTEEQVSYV
# h5HT2C [3] = target: T3, h5HT2C (Homo sapiens (Human), UniProt P28335); assay: h5HT2C binding
# T3 sequence (P28335 33-458): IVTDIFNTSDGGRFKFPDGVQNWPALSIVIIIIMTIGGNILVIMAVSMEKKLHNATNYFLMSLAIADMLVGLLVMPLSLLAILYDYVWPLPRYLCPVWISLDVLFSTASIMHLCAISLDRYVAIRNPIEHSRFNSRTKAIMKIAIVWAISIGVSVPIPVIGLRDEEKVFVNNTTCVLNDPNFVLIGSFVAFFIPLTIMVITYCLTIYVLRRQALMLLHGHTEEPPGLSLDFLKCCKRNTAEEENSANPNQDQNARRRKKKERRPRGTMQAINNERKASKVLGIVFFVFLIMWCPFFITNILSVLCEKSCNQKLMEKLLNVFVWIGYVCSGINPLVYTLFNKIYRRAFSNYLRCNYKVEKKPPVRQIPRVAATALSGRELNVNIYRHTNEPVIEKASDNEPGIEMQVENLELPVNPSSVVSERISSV
# human SERT = human SERT (Homo sapiens (Human), UniProt P31645); assay: human SERT binding assay with [3H]-citalopram on HEK-293 membranes; settings: read-out: hSERT binding Ki
# Sequence of human SERT (P31645 whole entry): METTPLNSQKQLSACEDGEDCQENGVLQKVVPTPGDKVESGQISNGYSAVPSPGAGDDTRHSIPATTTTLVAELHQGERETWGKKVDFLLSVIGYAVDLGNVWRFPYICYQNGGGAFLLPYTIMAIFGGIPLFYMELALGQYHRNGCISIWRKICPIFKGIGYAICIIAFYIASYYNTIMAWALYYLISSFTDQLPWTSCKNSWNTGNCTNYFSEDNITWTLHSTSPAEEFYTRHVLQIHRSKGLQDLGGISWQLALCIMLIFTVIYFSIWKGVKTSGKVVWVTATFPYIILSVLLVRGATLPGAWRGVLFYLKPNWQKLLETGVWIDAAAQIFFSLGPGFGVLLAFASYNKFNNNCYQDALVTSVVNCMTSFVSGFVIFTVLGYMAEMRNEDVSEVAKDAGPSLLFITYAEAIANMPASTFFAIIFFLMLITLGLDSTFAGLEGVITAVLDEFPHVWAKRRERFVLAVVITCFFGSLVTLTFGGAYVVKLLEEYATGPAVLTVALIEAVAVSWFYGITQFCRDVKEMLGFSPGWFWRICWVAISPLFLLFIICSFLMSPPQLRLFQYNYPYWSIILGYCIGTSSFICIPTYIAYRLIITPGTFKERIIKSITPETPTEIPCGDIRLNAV
# h5-HT6 = h5-HT6 (Homo sapiens (Human), UniProt P50406); assay: h5-HT6 binding assay with [3H]LSD on HEK-293 membranes; settings: h5-HT6, [3H]LSD, HEK-293 membranes; read-out: h5HT6 binding Ki
# Sequence of h5-HT6 (P50406 whole entry): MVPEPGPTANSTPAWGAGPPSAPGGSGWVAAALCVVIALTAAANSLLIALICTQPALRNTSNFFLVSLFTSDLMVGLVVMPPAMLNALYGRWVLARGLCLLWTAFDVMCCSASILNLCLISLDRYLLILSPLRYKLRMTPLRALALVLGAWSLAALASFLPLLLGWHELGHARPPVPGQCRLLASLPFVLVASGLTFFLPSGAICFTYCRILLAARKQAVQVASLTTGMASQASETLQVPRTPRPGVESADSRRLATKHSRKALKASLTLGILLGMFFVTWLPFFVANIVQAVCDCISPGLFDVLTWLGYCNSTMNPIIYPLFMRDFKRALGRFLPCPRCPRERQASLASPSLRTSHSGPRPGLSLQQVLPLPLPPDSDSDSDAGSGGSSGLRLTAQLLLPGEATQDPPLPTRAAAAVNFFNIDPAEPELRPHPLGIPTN
# Experimental: Receptor binding was performed using membrane fractions prepared from the HEK-293 cell line recombinantly expressing rat 5-HT7 receptors (NCBI accession NM_022938). Compound affinity for the rat 5-HT7 receptor subtype was evaluated by competitive radioligand binding assays using 5-carboxamido[^3H]tryptamine ([^3H]5-CT) (Amersham Biosciences, cat. 90000403) detection. HitHunter™ cAMP assays are in-vitro based competitive immunoassays. The assay was performed on the HEK-293 cell line stably transfected with r5-HT7 receptor. Cells were pre-incubated with test compounds for 10 minutes. For antagonist testing, the cells were then challenged with 100 nM 5-CT for 20 minutes. Cells were then lysed and cAMP measured according to manufacturers protocol (Amersham, cat. NET791250UC) or [^3H]mesulergine (Amersham, cat. TRK1041). The assay was performed on membranes prepared from HEK-293 cells stably transfected with h5-HT6. Following centrifugation, membranes were resuspended and incubated for 60 min at room temperature with 1.7 nM [^3H]LSD in the presence of increasing concentration of test compounds. Nonspecific binding was defined in the presence of 10 μM clozapine (Tocris, cat. TRK1068). Homogenized HEK-293 membranes expressing the human SERT were incubated in 50 mM Tris-HCl (pH 7.5), 120 mM NaCl, 5 mM KCl with [^3H]-citalopram (3 nM) with or without test compounds. Nonspecific binding was determined in the presence of 10 μM fluoxetine. Radioactivity readouts and Ki values were performed as previously described for r5-HT7. […] Compounds were assayed in their free form or as salts, as indicated in the Examples section above.
# h5HT2A [4] = target: T1, h5HT2A; assay: h5HT2A binding; remark: listed apart in the source
# h5HT2B [5] = target: T2, h5HT2B; assay: h5HT2B binding; remark: listed apart in the source
# h5HT2C [6] = target: T3, h5HT2C; assay: h5HT2C binding; remark: listed apart in the source
# r5-HT7 receptor = r5-HT7 receptor (Rattus norvegicus (Rat), UniProt P32305); assay: HitHunter cAMP assay, antagonist testing against 100 nM 5-CT; format: cell-based; settings: antagonist testing, 100 nM 5-CT challenge, HEK-293 r5-HT7; read-out: R5HT7 cAMP pKb (converted)
# Sequence of r5-HT7 receptor (P32305 1-435): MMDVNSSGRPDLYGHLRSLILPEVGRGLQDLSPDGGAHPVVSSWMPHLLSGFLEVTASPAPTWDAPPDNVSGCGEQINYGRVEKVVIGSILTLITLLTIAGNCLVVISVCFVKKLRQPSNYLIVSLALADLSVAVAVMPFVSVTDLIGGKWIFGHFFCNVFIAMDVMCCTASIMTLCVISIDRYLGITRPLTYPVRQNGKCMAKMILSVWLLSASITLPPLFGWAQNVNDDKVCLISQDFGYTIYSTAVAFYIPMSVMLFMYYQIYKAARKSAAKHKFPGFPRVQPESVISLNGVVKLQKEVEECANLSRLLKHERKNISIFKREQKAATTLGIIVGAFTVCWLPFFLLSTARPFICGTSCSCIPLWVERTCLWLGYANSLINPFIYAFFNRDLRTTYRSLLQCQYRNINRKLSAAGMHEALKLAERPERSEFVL
# Summary of the method: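 For antagonism, cells expressing the rat receptor are pretreated with compound (10 min) and stimulated with 100 nM 5-CT (20 min). Lysates are assayed for cAMP by competitive immunoassay. Binding uses [3H]5-CT competition on HEK-293 membranes, giving Ki.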
# [7] = rat 5-HT7 receptor, HEK-293 membranes
# Sequence of rat 5-HT7 receptor (P32305 1-435): as above
"Ki (rat 5-HT7 receptor; rat 5-HT7, HEK-293 membranes)",Ki (h5HT2A [1]),Ki (h5HT2B [2]),Ki (h5HT2C [3]),Compound,Ki (human SERT),Ki (rat 5-HT7 receptor; [7]),Ki (h5-HT6),Ki (h5HT2A [4]),Ki (h5HT2B [5]),Ki (h5HT2C [6]),Kb (r5-HT7 receptor)
> 10000 nM,150 nM,130 nM,230 nM,"Cc1ccc(Oc2cc(Cl)ccc2O[C@H]2CCNC2)cc1 [Example 266, (S)-3-(4-Chloro-2-p-tolyloxy-phenoxy)-pyrrolidine]",–,–,–,–,–,–,–
> 10000 nM,220 nM,310 nM,330 nM,"Cc1ccccc1Oc1cc(Cl)ccc1O[C@H]1CCNC1 [Example 272, (S)-3-(4-Chloro-2-o-tolyloxy-phenoxy)-pyrrolidine]",–,–,–,–,–,–,–
–,–,–,–,"C[C@@H](Oc1ccc(Br)cc1OC1CNC1)c1cccc(C(F)(F)F)c1 [Example 113, (R)-3-[5-Bromo-2-[1-(3-trifluoromethyl-phenyl)-ethoxy]-phenoxy]-azetidine]",–,11 nM,496 nM,206 nM,122 nM,490 nM,–
8600 nM,100 nM,170 nM,230 nM,"Cc1cc(Oc2cc(Cl)ccc2O[C@H]2CCNC2)ccc1F [Example 274, (S)-3-[4-Chloro-2-(4-fluoro-3-methyl-phenoxy)-phenoxy]-pyrrolidine]",–,–,–,–,–,–,–
820 nM,150 nM,130 nM,380 nM,"Cc1ccc(Oc2cc(Cl)ccc2O[C@@H]2CCN(C)C2)cc1 [Example 268, (R)-3-(4-Chloro-2-p-tolyloxy-phenoxy)-1-methyl-pyrrolidine]",–,–,–,–,–,–,–
–,–,–,–,"C[C@@H](Oc1ccc(Cl)cc1OC1CCNCC1)c1cccc(C(F)(F)F)c1 [Example 135, (R)-4-[5-Chloro-2-[1-(3-trifluoromethyl-phenyl)-ethoxy]-phenoxy]-piperidine]",96 nM,15 nM,1280 nM,140 nM,27 nM,755 nM,–
–,–,–,–,"Clc1cccc(COc2ccc(Br)cc2OC2CNC2)c1 [Example 2, 3-[5-Bromo-2-(3-chloro-benzyloxy)-phenoxy]-azetidine]",1 nM,12 nM,47 nM,42 nM,74 nM,760 nM,31.6 nM
> 5000 nM,82 nM,160 nM,150 nM,"Cc1cccc(Oc2cc(Cl)ccc2O[C@H]2CCNC2)c1 [Example 273, (S)-3-(4-Chloro-2-m-tolyloxy-phenoxy)-pyrrolidine]",–,–,–,–,–,–,–
–,–,–,–,"Brc1ccc(OCCc2ccccc2)c(OC2CNC2)c1 [Example 195, 3-(5-Bromo-2-phenethyloxy-phenoxy)-azetidine]",60 nM,2 nM,27 nM,10 nM,4 nM,42 nM,–
5500 nM,410 nM,270 nM,120 nM,"Clc1ccc(O[C@H]2CCNC2)c(Oc2ccc(Br)cc2)c1 [Example 277, (S)-3-[2-(4-Bromo-phenoxy)-4-chloro-phenoxy]-pyrrolidine]",–,–,–,–,–,–,–
> 10000 nM,190 nM,500 nM,400 nM,"Fc1ccc(Oc2cc(Cl)ccc2O[C@H]2CCNC2)cc1 [Example 269, (S)-3-[4-Chloro-2-(4-fluoro-phenoxy)-phenoxy]-pyrrolidine]",–,–,–,–,–,–,–
> 10000 nM,530 nM,910 nM,220 nM,"Clc1ccc(Oc2cc(Cl)ccc2O[C@H]2CCNC2)cc1 [Example 275, (S)-3-[4-Chloro-2-(4-chloro-phenoxy)-phenoxy]-pyrrolidine]",–,–,–,–,–,–,–
–,–,–,–,"CC(Oc1ccc(Cl)cc1OC1CNC1)c1cccc(C(F)(F)F)c1 (stereo in doubt) [Example 101, (S)-3-[5-Chloro-2-[1-(3-trifluoromethyl-phenyl)-ethoxy]-phenoxy]-azetidine]",152 nM,5 nM,746 nM,317 nM,203 nM,933 nM,–
18 nM,–,–,1010 nM,"Clc1ccc(OC2CN(c3ccccc3)C2)c(OC2CNC2)c1 [Example 222, 3-[5-Chloro-2-(1-phenyl-azetidin-3-ol)-phenoxy]-azetidine]",2110 nM,–,–,–,–,–,–
–,–,–,–,"Clc1cccc(CCOc2ccc(Cl)cc2OC2CNC2)c1 [Example 185, 3-[5-Chloro-2-[2-(3-chloro-phenyl)-ethoxy]-phenoxy]-azetidine]",29 nM,6 nM,177 nM,8 nM,7 nM,91 nM,–
–,–,–,–,"CN1CC(Oc2cc(Cl)ccc2OCc2cccc(Cl)c2)C1 [Example 38, 3-[5-Chloro-2-(3-chloro-benzyloxy)-phenoxy]-1-methyl-azetidine]",100 nM,6 nM,36 nM,–,–,–,10 nM
–,–,–,–,"FC(F)(F)c1ccc(COc2ccc(Br)cc2OC2CNC2)o1 [Example 10, 3-[5-Bromo-2-(5-trifluoromethyl-furan-2-ylmethoxy)-phenoxy]-azetidine]",39 nM,7 nM,50 nM,–,–,–,6.31 nM
–,–,–,–,"FC(F)(F)c1ccc(COc2ccc(Cl)cc2OC2CNC2)o1 [Example 54, 3-[5-Chloro-2-(5-trifluoromethyl-furan-2-ylmethoxy)-phenoxy]-azetidine]",28 nM,6 nM,77 nM,–,–,–,7.94 nM
2300 nM,120 nM,65 nM,210 nM,"Cc1ccc(Oc2cc(Cl)ccc2O[C@@H]2CCNC2)cc1 [Example 267, (R)-3-(4-Chloro-2-p-tolyloxy-phenoxy)-pyrrolidine]",–,–,–,–,–,–,–
–,–,–,–,Clc1ccc(OCCc2ccccc2)c(OC2CNC2)c1 [Example 186],53 nM,5 nM,33 nM,14 nM,8 nM,79 nM,–
> 10000 nM,1400 nM,1300 nM,330 nM,"CC(C)c1ccc(Oc2cc(Cl)ccc2O[C@H]2CCNC2)cc1 [Example 278, (S)-3-[4-Chloro-2-(4-isopropyl-phenoxy)-phenoxy]-pyrrolidine]",–,–,–,–,–,–,–
> 10000 nM,84 nM,190 nM,120 nM,"Clc1cccc(Oc2cc(Cl)ccc2O[C@H]2CCNC2)c1 [Example 276, (S)-3-[4-Chloro-2-(3-chloro-phenoxy)-phenoxy]-pyrrolidine]",–,–,–,–,–,–,–
660 nM,78 nM,98 nM,350 nM,"CN1CC[C@@H](Oc2ccc(Cl)cc2Oc2ccc(F)cc2)C1 [Example 271, (R)-3-[4-Chloro-2-(4-fluoro-phenoxy)-phenoxy]-1-methyl-pyrrolidine]",–,–,–,–,–,–,–
1000 nM,120 nM,75 nM,240 nM,"Fc1ccc(Oc2cc(Cl)ccc2O[C@@H]2CCNC2)cc1 [Example 270, (R)-3-[4-Chloro-2-(4-fluoro-phenoxy)-phenoxy]-pyrrolidine]",–,–,–,–,–,–,–
–,–,–,–,"COc1ccc2c(c1)CC(Oc1ccc(Cl)cc1OC1CNC1)C2 (stereo not shown) [Example 177, 3-[5-Chloro-2-(5-methoxy-indan-2-yloxy)-phenoxy]-azetidine]",262 nM,12 nM,123 nM,35 nM,56 nM,140 nM,–
–,–,–,–,"CC(Oc1ccc(Br)cc1OC1CNC1)c1cccc(Cl)c1 (racemic) [Example 111, (±)-3-[5-Bromo-2-[1-(3-chloro-phenyl)-ethoxy]-phenoxy]-azetidine]",118 nM,10 nM,268 nM,73 nM,69 nM,331 nM,–

Compound,"Ki (rat 5-HT7 receptor; rat 5-HT7, HEK-293 membranes)",Ki (h5HT2A [1]),Ki (h5HT2B [2]),Ki (h5HT2C [3]),Ki (human SERT),Ki (rat 5-HT7 receptor; [7]),Ki (h5-HT6),Ki (h5HT2A [4]),Ki (h5HT2B [5]),Ki (h5HT2C [6]),Kb (r5-HT7 receptor)
"C[C@@H]1NC[C@H]1Oc1cc(Br)ccc1OCc1cccc(F)c1 (racemic) [Example 219, (±)-trans-3-[5-Bromo-2-(3-fluoro-benzyloxy)-phenoxy]-2-methyl-azetidine]",9 nM,–,–,31 nM,68 nM,–,–,–,–,–,–
